Measured values taken from publication PMC11251182, “Tubular insulin-induced gene 1 deficiency promotes NAD^+ consumption and exacerbates kidney fibrosis” (EMBO Molecular Medicine, 2024).

Target: T1, human recombinant Aldh1a1 (hAldh1a1) (Homo sapiens, UniProt P00352)
T1 construct: recombinant human Aldh1a1 protein (Novoprotein, CF44)
T1 sequence (P00352 2-501): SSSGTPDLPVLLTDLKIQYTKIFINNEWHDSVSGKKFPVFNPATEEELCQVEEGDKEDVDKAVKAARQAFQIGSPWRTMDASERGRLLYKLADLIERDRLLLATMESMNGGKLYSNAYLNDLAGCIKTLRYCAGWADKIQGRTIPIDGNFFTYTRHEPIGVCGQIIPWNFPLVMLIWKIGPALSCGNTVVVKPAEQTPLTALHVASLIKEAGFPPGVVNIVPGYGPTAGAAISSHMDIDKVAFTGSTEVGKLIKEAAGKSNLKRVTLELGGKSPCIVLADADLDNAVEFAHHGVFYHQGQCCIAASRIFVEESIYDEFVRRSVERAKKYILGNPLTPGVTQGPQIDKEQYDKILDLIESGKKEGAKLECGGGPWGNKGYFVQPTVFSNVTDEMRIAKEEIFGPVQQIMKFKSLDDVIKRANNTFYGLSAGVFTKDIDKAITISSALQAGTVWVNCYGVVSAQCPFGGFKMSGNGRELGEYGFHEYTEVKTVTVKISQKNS
Experiment: SPR (Biacore T200, CM5 chip, amine coupling); also inhibited the recombinant enzyme's activity at […]
Format: binding

- Kd: 1980 nM
Compound: COC(=O)C1=C(C)NC(C)=C(C(=O)OCCN(C)Cc2ccccc2)C1c1cccc([N+](=O)[O-])c1 (stereo not shown) [13-F9, nicardipine]
